{"source": "paper PMC6986443", "about": "“T‐495, a novel low cooperative M1 receptor positive allosteric modulator, improves memory deficits associated with cholinergic dysfunction and is characterized by low gastrointestinal side effect risk” (Pharmacology Research & Perspectives, 2020)", "key": {"M1R [1]": {"tested_on": "M1R", "parameters": "method as in PMID 30089885", "settings": "cited from earlier work"}, "M1R [2]": {"tested_on": "M1R", "parameters": "method as in PMID 30089885", "settings": "at concentrations required for procognitive efficacy; cited from earlier work"}, "rats": {"tested_on": "rats", "parameters": "method as in PMID 30089885", "settings": "cited from earlier work"}, "[3]": {"tested_on": "rats pretreated with scopolamine", "parameters": "method as in PMID 30089885", "settings": "0.1 mg/kg; cited from earlier work"}, "[4]": {"tested_on": "CaMKIIα‐tTA/A53T α‐syn dTg mice", "test": "Y‐maze task", "assay_type": "in vivo, mouse", "settings": "1 mg/kg p.o. (P = .12)", "method": "The Y‐maze was fabricated from gray plastic and consisted of three arms (40 cm long, 12 cm high, 3 cm wide at the bottom, and 10 cm wide at the top) with an angle of 120°. Visual cues were placed outside each arm, and the apparatus was illuminated at 10 lux. […] An arm entry was defined as all four paws of the mouse being in the arm, and the sequence of arm entries was monitored with a video camera and counted manually. An alternation was defined as successive entries into the three arms on overlapping triplet sets.36 The percentage of alternation was calculated as the ratio of actual to possible alternations (total number of arm entries minus 2) multiplied by 100."}, "SD rats": {"tested_on": "SD rats", "settings": "rats, donepezil 0.1 mg/kg p.o. alone; combination study; rats with effect/total", "method": "Seven‐ or 8‐week‐old SD rats were individually placed into observation cages. After an acclimation period of at least 1 hour, a test compound was administered to the rats. […] Cholinergic side effects, including diarrhea, lacrimation, salivation, miosis, and fasciculation, were assessed blindly, as described previously,27 and convulsion was scored using a modified Racine scale,37 as follows: stage 0, normal; stage 1, immobility; stage 2, forelimb and/or tail extension and rigid posture; stage 3, repetitive movements, head nodding, and gnawing; stage 4, rearing and falling; stage 5, continuous rearing and falling; stage 6, severe tonic‐clonic seizure with loss of postural control; and stage 7, death in the first 2 hours."}}, "data": [{"smiles": "Cc1c(Cc2ccc(-n3cccn3)cc2)cc2c(c1F)CN([C@H]1COCC[C@@H]1O)C2=O", "note": "[TAK‐071]", "values": [{"measurement": "α‐value (cooperativity)", "setting": "M1R [1]", "value": 199}, {"measurement": "inhibition of the binding of scopolamine to M1R", "setting": "M1R [2]", "value": "did not inhibit"}, {"measurement": "scopolamine‐induced cognitive impairment, combination with an AChEI", "setting": "rats", "value": "synergistically improved"}, {"measurement": "difference between doses improving cognitive function and doses inducing diarrhea", "setting": "rats; rats", "value": 33, "unit": "fold"}]}, {"smiles": "COc1cc2c(cc1OC)C(=O)C(CC1CCN(Cc3ccccc3)CC1)C2", "note": "(stereo not drawn) [donepezil, reference compound]", "values": [{"measurement": "scopolamine‐induced NDI reduction, retention trial", "setting": "[3]", "value": "subeffective"}, {"measurement": "reduced percentage of alternations", "setting": "[4]", "value": "tended to reverse"}, {"measurement": "Convulsion", "setting": "SD rats", "value": "0/6"}, {"measurement": "Fasciculation", "setting": "SD rats", "value": "0/6"}, {"measurement": "Lacrimation", "setting": "SD rats", "value": "0/6"}, {"measurement": "Loose, mucous stool, or diarrhea", "setting": "SD rats", "value": "0/6"}, {"measurement": "Myosis", "setting": "SD rats", "value": "0/6"}, {"measurement": "Salivation", "setting": "SD rats", "value": "0/6"}]}]}
